Structures are written as SMILES. Where a name gives a salt, the structure may show the parent alone. Bounds are passed on as bounds.

The test has as its target T1, human SSAO (Homo sapiens, UniProt Q16853).
T1 construct: made in house
T1 sequence (Q16853 29-763 limits assumed): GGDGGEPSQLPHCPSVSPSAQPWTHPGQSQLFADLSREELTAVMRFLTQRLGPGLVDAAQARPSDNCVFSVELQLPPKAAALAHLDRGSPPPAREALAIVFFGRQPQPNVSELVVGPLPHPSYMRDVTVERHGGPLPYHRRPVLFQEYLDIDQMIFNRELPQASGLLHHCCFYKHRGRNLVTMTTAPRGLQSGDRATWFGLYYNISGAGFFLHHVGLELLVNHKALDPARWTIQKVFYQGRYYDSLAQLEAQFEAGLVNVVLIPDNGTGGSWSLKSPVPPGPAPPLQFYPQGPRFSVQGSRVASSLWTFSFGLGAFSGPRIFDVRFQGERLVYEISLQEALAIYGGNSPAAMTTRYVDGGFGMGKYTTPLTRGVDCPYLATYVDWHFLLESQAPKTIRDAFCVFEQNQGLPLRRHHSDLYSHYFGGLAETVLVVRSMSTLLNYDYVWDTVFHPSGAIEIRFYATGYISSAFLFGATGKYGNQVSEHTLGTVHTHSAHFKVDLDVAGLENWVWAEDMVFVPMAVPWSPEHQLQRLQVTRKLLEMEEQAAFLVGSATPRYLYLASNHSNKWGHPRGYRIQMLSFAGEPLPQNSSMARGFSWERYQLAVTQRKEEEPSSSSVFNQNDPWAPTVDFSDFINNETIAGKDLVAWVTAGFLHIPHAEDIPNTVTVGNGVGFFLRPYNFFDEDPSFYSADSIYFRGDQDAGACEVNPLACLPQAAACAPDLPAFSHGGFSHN
The test can be described thus: SSAO inhibitory activity (HRP-coupled hydrogen peroxide detection or 14C-benzaldehyde detection, benzylamine substrate). It is filed as biochemical. To be noted: purified recombinantly expressed human SSAO, benzylamine as substrate, RT. As for the experimental part:
All primary assays were performed at RT. with purified recombinantly expressed human SSAO. Enzyme was prepared essentially as described in Öhman et al. (Protein Expression and Purification 46 (2006) 321-331). In addition, secondary- and selectivity assays were performed using SSAO prepared from various tissues or purified rat recombinant SSAO. The enzyme activity was assayed with benzylamine as substrate by measuring either benzaldehyde production, using ^14C-labeled substrate, or by utilizing the production of hydrogen peroxide in a horseradish peroxidase (HRP) coupled reaction. Briefly, test compounds were dissolved in dimethyl sulfoxide (DMSO) to a concentration of 10 mM. Dose-response measurements were assayed by either creating 1:10 serial dilutions in DMSO to produce a 7 point curve or by making 1:3 serial dilutions in DMSO to produce 11 point curves. The top concentrations were adjusted depending on the potency of the compounds and subsequent dilution in reaction buffer yielded a final DMSO concentration ≦2%.
In a horseradish peroxidase (HRP) coupled reaction, hydrogen peroxide oxidation of 10-acetyl-3,7-dihydroxyphenoxazine produced resorufin, which is a highly fluorescent compound (Zhout and Panchuk-Voloshina. Analytical Biochemistry 253 (1997) 169-174; Amplex® Red Hydrogen Peroxideperoxidase Assay kit, Invitrogen A22188). Enzyme and compounds in 50 mM sodium phosphate, pH 7.4 were set to pre-incubate in flat-bottomed microtiter plates for approximately 15 minutes before initiating the reaction by addition of a mixture of HRP, benzylamine and Amplex reagent. Benzylamine concentration was fixed at a concentration corresponding to the Michaelis constant, determined using standard procedures. Fluorescence intensity was then measured at several time points during 1-2 hours, exciting at 544 nm and reading the emission at 590 nm. For the human SSAO assay final concentrations of the reagents in the assay wells were: SSAO enzyme 1 μg/ml, benzylamine 100 μM, Amplex reagent 20 μM, HRP 0.1 U/mL and varying concentrations of test compound. The inhibition was measured as % decrease of the signal compared to a control without inhibitor (only diluted DMSO). The background signal from a sample containing no SSAO enzyme was subtracted from all data points. Data was fitted to a four parameter logistic model and IC50 values were calculated using the Graph Pad Prism 4 or XLfit 4 programs.
SSAO activity was assayed using 14C-labeled benzylamine and analysed by measuring radioactive benzaldehyde. In a white 96-well optiplate (Packard), 20 μL of diluted test compound was pre-incubated at RT. with 20 μL SSAO enzyme for approximately 15 minutes with continuous agitation. All dilutions were made with PBS. The reaction was initiated by adding 20 μL of the benzylamine substrate solution containing [7-14C] Benzylamine hydrochloride (CFA589, GE Healthcare). The plate was incubated for 1 hour as above after which the reaction was stopped by acidification (10 μL 1 M HCl). Then 90 μL Micro Scint-E solution (Perkin-Elmer) was added to each well and the plate was continuously mixed for 15 minutes. Phase separation occurred instantly and activity was read in a Topcount scintillation counter (Perkin-Elmer). In the final reaction well, the human recombinant SSAO concentration was 10 μg/ml. In order to optimize sensitivity, the substrate concentration was decreased as compared to the HRP coupled assay in order to get a higher fraction of radioactive product. In the human SSAO assay, benzylamine concentration was 40 μM (0.2 μCi/mL). Data was analysed as above.
`CN1CCC(CN(C)C(=O)N2CCC(c3cn(-c4ccc(Cl)cc4)c4cnccc34)CC2)CC1` [Compound 13, 4-[1-(4-Chlorophenyl)-1H-pyrrolo[2,3-c]pyridin-3-yl]-N-methyl-N-[(1-methylpiperidin-4-yl)methyl] piperidine-1-carboxamide; formic acid]: the IC50 – broadly, the concentration that inhibits the measured activity by half – is less than 100 nM.
Turning to `CN1CCC(CNC(=O)N2CCC(c3cn(-c4ccc(Cl)cc4)c4cnccc34)CC2)CC1` [Compound 11, 4-[1-(4-Chlorophenyl)-1H-pyrrolo[2,3-c]pyridin-3-yl]-N-[(1-methylpiperidin-4-yl)methyl] piperidine-1-carboxamide], the IC50 was less than 100 nM.
For the molecule `NCCCNC(=O)N1CCN(CC2CN(c3nn(-c4ccc(Cl)cc4)c4cnccc34)CCO2)CC1` (centres unmarked) [Compound 38, N-(3-Aminopropyl)-4-({4-[1-(4-chlorophenyl)-1H-pyrazolo[3,4-c]pyridin-3-yl]morpholin-2-yl}methyl)piperazine-1-carboxamide tri hydrochloride], the IC50 is 100 to 500 nM.
With `O=C(N1CCC(c2cn(-c3ccc(Cl)cc3)c3cnccc23)CC1)N1CCN(C2CC2)CC1` [Compound 16, 1-({4-[1-(4-Chlorophenyl)-1H-pyrrolo[2,3-c]pyridin-3-yl]piperidin-1-yl}carbonyl)-4-cyclopropyl-piperazine], the half-inhibitory concentration (IC50) was less than 100 nM.
Take `Clc1ccc(-n2nc(NCCN3CCOCC3)c3ccncc32)cc1` [Compound 44, 1-(4-Chlorophenyl)-N-[2-(morpholin-4-yl)ethyl]-1H-pyrazolo[3,4-c]pyridin-3-amine]: the IC50 was 500 to 2500 nM.
Regarding `O=C(NCCCN1CCOCC1)N1CCC(c2cn(-c3ccc(Cl)cc3)c3cnccc23)CC1` [Compound 26, 4-(1-(4-Chlorophenyl)-1H-pyrrolo[2,3-c]pyridin-3-yl]-N-[3-(morpholin-4-yl)propyl] piperidine-1-carboxamide], the IC50 is less than 100 nM.
Take `CC(C)[C@H]1CN(C(=O)N2CCC(c3cn(-c4ccc(Cl)cc4)c4cnccc34)CC2)CCN1` [Compound 19, (3S)-1-({4-[1-(4-Chlorophenyl)-1H-pyrrolo[2,3-c]pyridin-3-yl]piperidin-1-yl}carbonyl)-3-(propan-2-yl) piperazine]: the IC50 is less than 100 nM.
Regarding `Cc1ccc(-n2nc(N3CCOC(CNC(=O)OC(C)C)C3)c3ccncc32)cc1` (centres unmarked) [Compound 30, Propan-2-yl N-({4-[1-(4-methylphenyl)-1H-pyrazolo[3,4-c]pyridin-3-yl]morpholin-2-yl}methyl)carbamate], the IC50 was less than 100 nM.
Regarding `Clc1ccc(-n2nc(N3CCC(CN4CCNCC4)CC3)c3ccncc32)cc1` [Compound 49, 1-({1-[1-(4-Chlorophenyl)-1H-pyrazolo[3,4-c]pyridin-3-yl]piperidin-4-yl}methyl)piperazine], the IC50 lay in the range of 100 to 500 nM.
As for `CN1CCC(CNC(=O)CC2COCCN2c2nn(-c3ccc(Cl)cc3)c3cnccc23)CC1` (centres unmarked) [Compound 58, 2-{4-[1-(4-Chlorophenyl)-1H-pyrazolo[3,4-c]pyridin-3-yl]morpholin-3-yl}-N-[(1-methylpiperidin-4-yl)methyl] acetamide], the half-maximal inhibitory concentration (IC50) fell in the range of 100 to 500 nM.
As to `O=C(NCC1CCNCC1)C1CCN(c2nn(-c3ccc(Cl)cc3)c3cnccc23)CC1` [Compound 47, 1-[1-(4-Chlorophenyl)-1H-pyrazolo[3,4-c]pyridin-3-yl]-N-(piperidin-4-ylmethyl)piperidine-4-carboxamide dihydrochloride], the IC50 lay within 100 to 500 nM.
Under `O=C(NCC1CNCCO1)N1CCC(c2cn(-c3ccc(Cl)cc3)c3cnccc23)CC1` (centres unmarked) [Compound 20, 4-[1-(4-Chlorophenyl)-1H-pyrrolo[2,3-c]pyridin-3-yl]-N-(morpholin-2-ylmethyl) pipendine-1-carboxamide] stands less than 100 nM.
Regarding `CC(=O)OC1CCN(c2nn(-c3ccc(C)cc3)c3cnccc23)CC1` [Compound 52, 1-[1-(4-Methylphenyl)-1H-pyrazolo[3,4-c]pyridin-3-yl]piperidin-4-yl acetate], the IC50 is less than 100 nM.
As to `CC(C)N1CCC(NC(=O)N2CCC(c3cn(-c4ccc(Cl)cc4)c4cnccc34)CC2)CC1` [Compound 9, 4-[1-(4-Chlorophenyl)-1H-pyrrolo[2,3-c]pyridin-3-yl]-N-[1-(propan-2-yl)piperidin-4-yl] piperidine-1-carboxamide], the IC50 was less than 100 nM.
The result for `CN1CCN(C(=O)CC2COCCN2c2nn(-c3ccc(Cl)cc3)c3cnccc23)CC1` (centres unmarked) [Compound 55, 2-{4-[1-(4-Chlorophenyl)-1H-pyrazolo[3,4-c]pyridin-3-yl]morpholin-3-yl}-1-(4-methylpiperazin-1-yl)ethan-1-one] reads less than 100 nM; that for `NCCNC(=O)CC1COCCN1c1nn(-c2ccc(Cl)cc2)c2cnccc12` (centres unmarked) [Compound 54, N-(2-Aminoethyl)-2-{4-[1-(4-chlorophenyl)-1H-pyrazolo[3,4-c]pyridin-3-yl]morpholin-3-yl}acetamide dihydrochloride], less than 100 nM; that for `Cc1ccc(-n2nc(N3CCOC(COCCN)C3)c3ccncc32)cc1` (centres unmarked) [Compound 32, 2-({4-[1-(4-Methylphenyl)-1H-pyrazolo[3,4-c]pyridin-3-yl]morpholin-2-yl}methoxy)ethan-1-amine], 100 to 500 nM.
With `COC(=O)CC1COCCN1c1nn(-c2ccc(Cl)cc2)c2cnccc12` (centres unmarked) [Compound 40, Methyl 2-{4-[1-(4-chlorophenyl)-1H-pyrazolo[3,4-c]pyridin-3-yl]morpholin-3-yl}acetate], the IC50 was less than 100 nM.
Consider `Clc1ccc(-n2nc(N3CCOCC3CN3CCOCC3)c3ccncc32)cc1` (centres unmarked) [Compound 41, 4-[1-(4-Chlorophenyl)-1H-pyrazolo[3,4-c]pyridin-3-yl]-3-(morpholin-4-ylmethyl)morpholine], for which the IC50 is 100 to 500 nM.
In the case of `CN1CCN(C)C(CNC(=O)N2CCC(c3cn(-c4ccc(Cl)cc4)c4cnccc34)CC2)C1` (centres unmarked) [Compound 21, 4-[1-(4-Chlorophenyl)-1H-pyrrolo[2,3-c]pyridin-3-yl]-N-[(1,4-dimethyl-piperazin-2-yl)methyl] piperidine-1-carboxamide], the IC50 is less than 100 nM.
As for `Clc1ccc(-n2nc(N3CCC(CNCC4CCNCC4)CC3)c3ccncc32)cc1` [Compound 50, ({1-[1-(4-Chlorophenyl)-1H-pyrazolo[3,4-c]pyridin-3-yl]piperidin-4-yl}methyl)(piperidin-4-ylmethyl)amine], the IC50 was in the range of 100 to 500 nM.
Turning to `O=C(NCc1nn[nH]n1)N1CCC(c2cn(-c3ccc(Cl)cc3)c3cnccc23)CC1` [Compound 61, 4-[1-(4-Chlorophenyl)-1H-pyrrolo[2,3-c]pyridin-3-yl]-N-(2H-1,2,3,4-tetrazol-5-ylmethyl)piperidine-1-carboxamide; trifluoroacetic acid], the IC50 was less than 100 nM.
Under `Clc1ccc(-n2cc(C3CCN(CC4CCNCC4)CC3)c3ccncc32)cc1` [Compound 3, 4-[1-(4-Chlorophenyl)-1H-pyrrolo[2,3-c]pyridin-3-yl]-1-(piperidin-4-ylmethyl) piperidine] stands 100 to 500 nM.
